Data on 16 compounds can be found in PubChem BioAssay AID248 (DTP/NCI, 2004).

The test concerns L1210 leukemia ip in BDF1 mice, survival T/C. Nature of the test: NCI In Vivo Anticancer Drug Screen. Data for tumor model L1210 Leukemia (intraperitoneal) in B6D2F1 (BDF1) mice. The following applies: endpoint: mean survival time, higher = longer survival. A digest of the protocol:
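Survival endpoint. Drug-treated group vs vehicle group, expressed as T divided by C. Tumor passaged by transplantation.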

The mark [1] stands for this setting: dose: 100.0 mg/kg/injection, schedule: Q01DX009 (ip), vehicle: Klucel (hydroxypropylcellulose) (HPC).
Setting [2] is: dose: 100.0 mg/kg/injection, schedule: Q04DX003 (ip), vehicle: Klucel (hydroxypropylcellulose) (HPC).
The mark [3] stands for this setting: dose: 200.0 mg/kg/injection, schedule: Q01DX009 (ip), vehicle: Klucel (hydroxypropylcellulose) (HPC).
Setting [4] is: dose: 200.0 mg/kg/injection, schedule: Q04DX003 (ip), vehicle: Klucel (hydroxypropylcellulose) (HPC).
[5] abbreviates: dose: 400.0 mg/kg/injection, schedule: Q01DX009 (ip), vehicle: Klucel (hydroxypropylcellulose) (HPC).
[6] abbreviates: dose: 400.0 mg/kg/injection, schedule: Q04DX003 (ip), vehicle: Klucel (hydroxypropylcellulose) (HPC).
The mark [7] stands for this setting: dose: 100.0 mg/kg/injection, schedule: Q01DX001 (ip), vehicle: saline.
[8] abbreviates: dose: 25.0 mg/kg/injection, schedule: Q01DX009 (ip), vehicle: saline.
Setting [9] is: dose: 50.0 mg/kg/injection, schedule: Q01DX009 (ip), vehicle: saline.

Where “and” joins values, the source holds several entries; their conditions need not be identical. Equal values may be shown once. Inconclusive results and toxic doses are left out.

Turning to `COc1cc([N+](=O)[O-])c(/C=C2/c3cc(OC)c(OC)cc3CCN2C)cc1Br`, the T/C is, setting by setting: under setting [1], 100 % of control; under setting [2], 90 % of control; under setting [3], 96 % of control; under setting [4], 96 % of control; under setting [5], 92 % of control; under setting [6], 95 % of control.
With `O=C1C2C(C(=O)N1c1ccccc1)C1c3ccccc3C2C2CCCCN21` (stereo not drawn), the T/C is, setting by setting: (dose: 25.0 mg/kg/injection, schedule: Q01DX009 (ip), vehicle: Klucel (hydroxypropylcellulose) (HPC)) 102 % of control; (dose: 50.0 mg/kg/injection, schedule: Q01DX009 (ip), vehicle: Klucel (hydroxypropylcellulose) (HPC)) 105 % of control; under setting [1], 92 % of control; under setting [2], 92 % of control.
For the compound `CCCCNC(=O)NNC(=O)OCC`, the T/C runs as follows: (dose: 100.0 mg/kg/injection, schedule: Q04DX003 (ip), vehicle: saline) 100 % of control; (dose: 200.0 mg/kg/injection, schedule: Q04DX003 (ip), vehicle: saline) 100 % of control; (dose: 400.0 mg/kg/injection, schedule: Q04DX003 (ip), vehicle: saline) 100 % of control.
Take `N/C(=N\O)c1ncn(C2OC(CO)C(O)C2O)c1N` (stereo not drawn): the T/C was 103 % of control (dose: 100.0 mg/kg/injection, schedule: Q01DX005 (ip), vehicle: saline) and 108 % of control (dose: 200.0 mg/kg/injection, schedule: Q01DX005 (ip), vehicle: saline).
Take `COC(=O)c1[nH]c(=O)[nH]c(=O)c1F`: the T/C (dose: 1.0 mg/kg/injection, schedule: Q01DX009 (ip), vehicle: saline with Tween-80) was 103 % of control; the T/C (dose: 1.0 mg/kg/injection, schedule: Q01DX Z (ip), vehicle: methylcellulose (MC)) is 115 % of control; the T/C (dose: 2.0 mg/kg/injection, schedule: Q01DX009 (ip), vehicle: saline with Tween-80) is 110 % of control; the T/C (dose: 2.0 mg/kg/injection, schedule: Q01DX Z (ip), vehicle: carboxymethylcellulose (CMC)) was 118 % of control; the T/C (dose: 3.0 mg/kg/injection, schedule: Q01DX Z (ip), vehicle: carboxymethylcellulose (CMC)) is 124 % of control; the T/C (dose: 3.0 mg/kg/injection, schedule: Q01DX Z (ip), vehicle: methylcellulose (MC)) is 151 % of control. Also, the T/C is, setting by setting: (dose: 4.0 mg/kg/injection, schedule: Q01DX009 (ip), vehicle: saline with Tween-80) 123 % of control; (dose: 5.0 mg/kg/injection, schedule: Q01DX Z (ip), vehicle: carboxymethylcellulose (CMC)) 185 % of control; (dose: 6.0 mg/kg/injection, schedule: Q01DX Z (ip), vehicle: methylcellulose (MC)) 172 % of control; (dose: 8.0 mg/kg/injection, schedule: Q01DX009 (ip), vehicle: saline with Tween-80) 167 % of control; (dose: 8.0 mg/kg/injection, schedule: Q01DX Z (ip), vehicle: carboxymethylcellulose (CMC)) 150 % of control; (dose: 17.0 mg/kg/injection, schedule: Q01DX Z (ip), vehicle: carboxymethylcellulose (CMC)) 97 % of control. Besides, the T/C is 114 % of control (dose: 24.0 mg/kg/injection, schedule: Q01DX Z (ip), vehicle: methylcellulose (MC)); 120 % of control (dose: 25.0 mg/kg/injection, schedule: Q01DX Z (ip), vehicle: carboxymethylcellulose (CMC)); 92 % of control (dose: 32.0 mg/kg/injection, schedule: Q01DX009 (ip), vehicle: saline with Tween-80); 157 % of control (dose: 32.0 mg/kg/injection, schedule: Q04DX003 (ip), vehicle: saline with Tween-80); 101 % of control (dose: 38.0 mg/kg/injection, schedule: Q01DX Z (ip), vehicle: carboxymethylcellulose (CMC)); 114 % of control (dose: 48.0 mg/kg/injection, schedule: Q01DX Z (ip), vehicle: methylcellulose (MC)). In addition, the T/C by setting is: (dose: 64.0 mg/kg/injection, schedule: Q04DX003 (ip), vehicle: saline with Tween-80) 215 % of control; (dose: 90.0 mg/kg/injection, schedule: Q01DX Z (ip), vehicle: methylcellulose (MC)) 91 % of control.
Regarding `CCOCC(=O)c1c(O)cc(O)cc1O`, the T/C runs as follows: under setting [1], 97 % of control; under setting [3], 92 % of control; under setting [5], 101 % of control.
Regarding `CCN(CC)Cc1cc(Cl)cc(Cc2cc(Cl)cc(CN(CC)CC)c2O)c1O`, the T/C is 109 % of control (dose: 200.0 mg/kg/injection, schedule: Q04DX003 (ip), vehicle: acetone) and 98 % of control (dose: 400.0 mg/kg/injection, schedule: Q04DX003 (ip), vehicle: acetone).
For the compound `C1=C[N]2c3c4c(ccc3=C1)=CC=C[N]4[Ga]2[c]1ccccc1`, the T/C is 88 % of control (dose: 25.0 mg/kg/injection, schedule: Q04DX003 (ip), vehicle: saline with Tween-80); 97 % of control (dose: 50.0 mg/kg/injection, schedule: Q04DX003 (ip), vehicle: saline with Tween-80); 101 % of control (dose: 100.0 mg/kg/injection, schedule: Q04DX003 (ip), vehicle: saline with Tween-80).
Regarding `CC(=O)OC1CCC(=O)C2C(C(=O)O)CCCC12` (stereo not drawn), the T/C was 97 % of control under setting [7]; 103 % of control (dose: 200.0 mg/kg/injection, schedule: Q01DX001 (ip), vehicle: saline); 91 % of control (dose: 400.0 mg/kg/injection, schedule: Q01DX001 (ip), vehicle: saline).
For `CC(C)OC(=S)S`, the T/C runs as follows: under setting [8], 100 % of control; under setting [9], 94 % of control; (dose: 100.0 mg/kg/injection, schedule: Q01DX009 (ip), vehicle: saline) 93 % of control.
For `OCC#CC(O)c1ccccc1` (stereo not drawn), the T/C is, setting by setting: (dose: 12.5 mg/kg/injection, schedule: Q01DX001 (ip), vehicle: acetone) 94 % of control; (dose: 12.5 mg/kg/injection, schedule: Q01DX009 (ip), vehicle: saline) 94 % of control; (dose: 12.5 mg/kg/injection, schedule: Q04DX003 (ip), vehicle: acetone) 97 % of control; (dose: 12.5 mg/kg/injection, schedule: Q04DX003 (ip), vehicle: saline) 96 % of control; (dose: 25.0 mg/kg/injection, schedule: Q01DX001 (ip), vehicle: acetone) 97 % of control; under setting [8], 92 % of control. Moreover, the T/C (dose: 25.0 mg/kg/injection, schedule: Q04DX003 (ip), vehicle: saline) was 96 % of control; the T/C (dose: 50.0 mg/kg/injection, schedule: Q01DX001 (ip), vehicle: acetone) is 92 % of control; the T/C under setting [9] was 95 % of control; the T/C (dose: 50.0 mg/kg/injection, schedule: Q04DX003 (ip), vehicle: acetone) was 95 % of control; the T/C (dose: 50.0 mg/kg/injection, schedule: Q04DX003 (ip), vehicle: saline) was 95 % of control; the T/C (dose: 75.0 mg/kg/injection, schedule: Q01DX009 (ip), vehicle: saline) was 98 % of control. In addition, where the note is “dose: 115.0 mg/kg/injection, schedule: Q01DX009 (ip), vehicle: saline”, the T/C is 107 % of control.
Turning to `CCCCCCCCCCCC(=O)NC(=S)Nc1ccc2ccccc2c1`, the T/C is 86 % of control under setting [2], 86 % of control under setting [4] and 86 % of control under setting [6].
As for `CN1C2CCC1CC(NCCN1CC1)C2` (stereo not drawn), the T/C under setting [7] was 107 % of control.
As for `CN=NCc1ccccc1`, the T/C (dose: 90.0 mg/kg/injection, schedule: Q04DX002 (ip), vehicle: saline with Tween-80) was 106 % of control; the T/C (dose: 100.0 mg/kg/injection, schedule: Q04DX002 (ip), vehicle: saline with Tween-80) was 108 % of control and 122 % of control; the T/C (dose: 133.0 mg/kg/injection, schedule: Q04DX002 (ip), vehicle: saline with Tween-80) is 120 % of control; the T/C (dose: 200.0 mg/kg/injection, schedule: Q04DX002 (ip), vehicle: saline with Tween-80) is 106 % of control and 111 % of control; the T/C (dose: 300.0 mg/kg/injection, schedule: Q04DX002 (ip), vehicle: saline with Tween-80) is 117 % of control.
Regarding `OC1CCCC2CCCNC12` (stereo not drawn) (tested in a mixture with another compound), the T/C is 105 % of control under setting [1]; 93 % of control under setting [2]; 95 % of control under setting [3]; 105 % of control under setting [4]; 90 % of control under setting [5]; 89 % of control under setting [6].
Turning to `CCOC(=O)C(NNc1ccccc1)C(c1ccccc1)[P+](c1ccccc1)(c1ccccc1)c1ccccc1` (stereo not drawn), the T/C (dose: 75.0 mg/kg/injection, schedule: Q01DX001 (ip), vehicle: carboxymethylcellulose (CMC)) was 101 % of control.
